PMC8161495 (ACS Central Science, 2021)

Target: T1, full-length rat TRPV2 (rTRPV2) (Rattus norvegicus, UniProt Q9WUD2)
T1 sequence (Q9WUD2 1-761): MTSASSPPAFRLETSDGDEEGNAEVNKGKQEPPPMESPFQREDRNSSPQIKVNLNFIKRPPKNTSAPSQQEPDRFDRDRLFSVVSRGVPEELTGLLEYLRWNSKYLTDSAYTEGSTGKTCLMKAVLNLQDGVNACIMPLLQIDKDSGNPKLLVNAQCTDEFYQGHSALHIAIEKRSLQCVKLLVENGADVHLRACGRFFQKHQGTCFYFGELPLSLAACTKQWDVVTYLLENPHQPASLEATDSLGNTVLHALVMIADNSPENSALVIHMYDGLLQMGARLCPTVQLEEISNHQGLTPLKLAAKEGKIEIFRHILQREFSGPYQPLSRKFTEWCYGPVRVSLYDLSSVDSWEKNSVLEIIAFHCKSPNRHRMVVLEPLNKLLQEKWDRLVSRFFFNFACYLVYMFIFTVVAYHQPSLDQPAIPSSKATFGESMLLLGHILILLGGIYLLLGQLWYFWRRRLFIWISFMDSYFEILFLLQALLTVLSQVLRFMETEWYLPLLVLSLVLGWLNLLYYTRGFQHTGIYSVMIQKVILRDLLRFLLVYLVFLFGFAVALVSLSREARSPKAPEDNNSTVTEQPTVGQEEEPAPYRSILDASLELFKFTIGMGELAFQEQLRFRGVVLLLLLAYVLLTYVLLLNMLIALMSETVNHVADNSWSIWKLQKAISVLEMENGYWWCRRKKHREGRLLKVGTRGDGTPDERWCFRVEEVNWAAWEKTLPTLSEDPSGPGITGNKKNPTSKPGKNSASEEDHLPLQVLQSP
Assay: cryo-EM structure
Type: binding

COc1cc(/C=C/C(=O)N2CCC=CC2=O)cc(OC)c1OC [PL, piperlongumine]
cryo-EM structure (3.5 Å, C4 symmetry): The cryo-EM density map and atomic coordinates of PL-bound rat TRPV2 are deposited
